Source: US20260083698A1, “Synergistic Stimulation of Mucociliary Clearance to Treat Mucus Obstruction in Cystic Fibrosis and Other Muco-Obstructive Disorders” (The Board of Trustees of the Leland Stanford Junior …, priority 2022, published 2026)

Tests used:
pig tracheal mucosa = test: Short circuit current (Isc) and conductance, Ussing chamber, pig; conditions: pig tracheal mucosa; sequential 10 μM forskolin, 0.3 μM carbachol, 10 μM benzamil, 20 μM BPO-27, 200 μM niflumic acid
Source text: FIG. 4. Combined agonists inhibit sodium absorption and stimulate anion secretion by surface epithelia. (A) Cartoon of two electrogenic, ion transport pathways across airway apical epithelium: anion secretion increases surface fluid, Na+ absorption decreases surface fluid. The two pathways have opposite effects on fluid depth, but additive effects on short circuit current (Isc) because of their opposite valence and transport directions. (B) Raw trace of Isc across pig tracheal epithelium using Chart 4 software. After reaching a stable, unstimulated Isc (here, >2 h post-mounting), 10 μM forskolin, 0.3 μM carbachol, 10 μM benzamil, 20 μM benzopyrimido-pyrrolo-oxazinedione (BPO-27) and 200 μM niflumic acid were sequentially added at times shown. (C, D) Pig tracheal mucosa: averaged Δ Isc plots over time in response to (C) forskolin alone followed by forskolin+carbachol and (D) reversed order of agonist addition. (E & F) Ferret tracheal mucosa: averaged A Isc plots with same protocol as for pigs. Pig traces (C, D) are based on 10-12 experiments with tissues from 6 to 7 pigs. Ferret traces (E, F) are from 7 experiments with tissues from 5 ferrets.
Combined agonists stimulate epithelial surface anion secretion and inhibit Na^+ absorption. The surface epithelia also modify ASL. FIG. 4A is a cartoon of the main ion flows controlling ASL depth: anion-mediated fluid secretion increases, and Na^+-mediated fluid absorption decreases ASL depth. It was hypothesized that the combined agonists increase ASL depth and thus MCCV by stimulating secretion and inhibiting absorption (see also FIG. 6). […] With no counterbalancing absorption ASL depth is predicted to increase (dotted gold line in FIG. 6A) unless MCCV increases.
Inhibiting Na+ absorption would increase net fluid accumulation on the surface. […]
Electrophysiology. […] Total tissue conductance was calculated by applying Ohm's law to the Isc deflection resulting from a 1 mV pulse across the tissues every 20 s during the experiment. […]

ex vivo WT pig tracheas = test: ASL height by synchrotron-based phase contrast imaging; conditions: 10 μM formoterol (T30-T50); synergy agonists (T65-T85)
Method: ASL heights were determined in pig tracheal preparations using synchrotron-based phase contrast imaging (PCI). The synchrotron beamline produces enough parallel spatial coherence X-ray to increase the contrast between airway lumen and ASL layer by PCI. When X-rays pass through the intact tracheal preparation, the difference in refractive index between ASL and airway lumen results in a phase shift of X-rays that causes a distinctive interference pattern shown on the charge-coupled device (CCD) detector as variations in X-ray intensity.

[1] = system: sheep with induced CF airway disease; test: Tracheal mucus velocity (TMV) in sheep CF model (CFTRinh172 + hNE); assay type: in vivo; conditions: inhalation, 20 μg Formoterol
Method: Briefly, adult sheep are placed in an upright position in a specialized body harness and under local anesthesia the animals are nasally intubated with a standard endotracheal (ET) tube. Tracheal mucus velocity (TMV), the in vivo equivalent of MCCV, is measured by a fluoroscopic technique. Five to seven radiopaque Teflon/bismuth trioxide disks (1 mm in diameter, 0.8-mm in thickness, and 1.8 mg in weight) are insufflated into the mid-portion of the animal's trachea. Once the disks are delivered into the trachea, the cephalad-axial velocity of each individual disk is recorded on videotape from a portable image intensifier unit in-line with the fluoroscope. The mean value of all the disk velocities is calculated for a given time point, with new disks insufflated pat subsequent time points. After baseline values are determined, animals receive by aerosolization 10 mg of CFTRinh172 and TMV measurements are repeated hourly for the following 2 hours. Then the animals receive by aerosolization 1190 mU of human Neutrophil Elastase (hNE) and TMV measurements are repeated hourly for the following 2 hours. […] Methacholine alone was not tested as this will induce severe bronchospasm and compromise the life of the animal. After test agent administration by inhalation, the TMV was measured hourly for 12 hours and at 24 hours.

WT piglet tracheas = test: Mucociliary clearance velocity (MCCV) in ex vivo WT piglet tracheas; set-up: species or system pig
Method: MCCV in tracheas was measured from 2 to 5 days old WT piglets (see “Methods” section for details). […] The 8 piglet tracheas were divided into two groups and tested 4 by applying forskolin first and 4 by applying carbachol first, followed by the combined agonists.
These experiments used forskolin to elevate cAMP.
Pig tissues. Newborn WT piglet tracheas (2-5 days old) were directly obtained at the swine facility of UC Davis or from the laboratory of David Stoltz, University of Iowa, via overnight priority express. Postmortem (<1 h) tracheas from young adult Yorkshire pigs (30-50 kg) and 5-12 months old M. putorius ferrets were from animal facilities at Stanford and Gilroy/CA. All methods using animal tracheae were carried out in accordance with relevant guidelines and regulations of Stanford University and animal protocols were approved (Stanford IACUC protocol#: 10,048). Piglet tracheas were shipped in DMEM cell culture medium, other animal tissues were transported to the laboratory in cold PhysioSol™ solution (Hospira, IL/USA) and then transferred to icecold Krebs Ringer bicarbonate (KRB) buffer gassed with 95% O2 and 5% CO2 and kept at 4° C. until use. The KRB buffer contained (in mM): 115 NaCl, 25 NaHCO3, 2.4 K2HPO4, 0.4 KH2PO4, 1.2 MgCl2, 1.2 CaCl2, 10 glucose, and 1.0 μM indomethacin, adjusted to pH 7.2 and ˜290 mOsm at room temperature.
MCCV measurement. Details are in the previous reports (16,59,60). Briefly, each whole length ferret or piglet trachea, or a CF tracheal trim, was cut open along the mid-dorsal line and mounted mucosal side up onto a Sylgard elastomer platform. […] The prepared trachea was placed into a sealed, humidified chamber bubbled continuously with gas (95%/5%-O2/CO2) with the serosal surface bathed with KRB buffer±drugs. […] Then excess apical solution was drained, and tissue was incubated for an additional 10 min before starting baseline measurements of MCCV. Drugs were added by bath replacement with pre-warmed bath+drug(s). Summary MCCV data are reported as a single number and based on the averaged MCCV during the last 20 min of the treatment period unless stated otherwise.
MCCV (all values are in mm/min) was then measured for 90-120 min and plotted as MCCV vs time and agonist(s) in FIG. 8.
It was hypothesized that the synergistic MCC induced by β-adrenergic and cholinergic agonists involved ENaC inhibition.

piglet tracheal rings = test: Airway narrowing: lumen area of thin sliced tracheal rings, methacholine; set-up: species or system pig; conditions: 0.3 or 0.6 mM methacholine alone
Method: Airway smooth muscle contraction measurement. Two methods were used to measure tracheal smooth muscle contraction. One is designed to measure airway narrowing using thin sliced tracheal rings. Piglet or ferret tracheal ring preparations of ˜2 mm were submerged and securely pinned on a Sylgard-lined Petri dish filled with KRB solution at 37° C. and pH 7.4. Digital images of tracheal ring contractions in response to agonists for 1-10 min intervals were recorded with a Nikon digital camera and the inner lumen surface area of the tracheal ring was calculated using ImageJ (NIH, MD/USA). The other method is using a force transducer. One end of an isolated ferret trachealis muscle bundle was secured in a Sylgard-lined Petri dish filled with KRB solution and the other end was attached by 26-gauge wire to a previously calibrated strain gauge (series 400A force transducer system, Cambridge Technology, MA/USA).

## Cn1c(=O)c2c(-c3ccccc3)n3c(c2n(C)c1=O)C(c1ccc(Br)o1)Oc1ccc(C(=O)O)cc1-3 (centres unmarked) [BPO-27, benzopyrimido-pyrrolo-oxazinedione]
Pig tracheal mucosa
  effect on Isc, raw trace: steep drops in Isc and conductance

## COc1ccc(CC(C)NCC(O)c2ccc(O)c(NC=O)c2)cc1 (centres unmarked) [formoterol]
Ex vivo WT pig tracheas
  average rate of ASL height increase: 1.7±0.1 μm/min
[1]
  effect on TMV compared to the control: barely had any effect

## O=C(O)c1cccnc1Nc1cccc(C(F)(F)F)c1 [niflumic acid]
Pig tracheal mucosa
  effect on Isc, raw trace: steep drops in Isc and conductance

## NC(=NCc1ccccc1)NC(=O)c1nc(Cl)c(N)nc1N [benzamil]
WT piglet tracheas; 10 μM benzamil vs without benzamil, piglets
  increase of baseline MCCV by ENaC inhibition: ~6 times
WT piglet tracheas; 10 μM benzamil, no agonists, piglets
  baseline MCCV with benzamil: 3.0±0.7 mm/min

## CC(=O)OC(C)C[N+](C)(C)C (centres unmarked) [methacholine]
Piglet tracheal rings
  sustained reduction of lumen area: 20-40%
WT piglet tracheas; piglet tracheas, 10 μM formoterol or 0.3 μM methacholine alone
  effect on MCCV: only a small increase
